From ChEMBL document CHEMBL5465560, “Selectivity Literature for EUbOPEN Chemogenomic Library” (2024)
One block for each compound: values may come before it.

Experiments:
[1] = target: T1, Activin receptor type-1 (Homo sapiens) (UniProt Q04771); assay: Selectivity interaction (Ambit KINOMEscan and KiNATiv profiling in Jurkat cells) EUB0000090b ACVR1; format: cell-based; details: at 1 µM
T1 sequence (whole entry): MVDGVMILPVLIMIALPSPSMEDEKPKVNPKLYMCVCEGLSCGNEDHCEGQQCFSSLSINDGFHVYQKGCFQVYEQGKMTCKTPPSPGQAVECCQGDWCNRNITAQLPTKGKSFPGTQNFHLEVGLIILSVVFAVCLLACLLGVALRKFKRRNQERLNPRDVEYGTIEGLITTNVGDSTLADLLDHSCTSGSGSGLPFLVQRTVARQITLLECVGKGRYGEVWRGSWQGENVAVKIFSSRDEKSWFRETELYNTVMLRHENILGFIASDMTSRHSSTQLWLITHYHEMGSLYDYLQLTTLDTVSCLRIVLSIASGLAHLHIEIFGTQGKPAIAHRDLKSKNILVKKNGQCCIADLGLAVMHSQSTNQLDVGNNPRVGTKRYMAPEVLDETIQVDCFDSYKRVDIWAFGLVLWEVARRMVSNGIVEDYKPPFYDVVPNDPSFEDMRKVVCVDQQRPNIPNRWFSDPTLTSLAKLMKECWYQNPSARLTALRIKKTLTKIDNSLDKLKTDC

[2] = target: Casein kinase I isoform delta (Homo sapiens, UniProt P48730); assay: Selectivity interaction (Kinase panel (DSF assay)) EUB0001559a CSNK1D
Sequence of Casein kinase I isoform delta (P48730 whole entry, looked up, canonical isoform): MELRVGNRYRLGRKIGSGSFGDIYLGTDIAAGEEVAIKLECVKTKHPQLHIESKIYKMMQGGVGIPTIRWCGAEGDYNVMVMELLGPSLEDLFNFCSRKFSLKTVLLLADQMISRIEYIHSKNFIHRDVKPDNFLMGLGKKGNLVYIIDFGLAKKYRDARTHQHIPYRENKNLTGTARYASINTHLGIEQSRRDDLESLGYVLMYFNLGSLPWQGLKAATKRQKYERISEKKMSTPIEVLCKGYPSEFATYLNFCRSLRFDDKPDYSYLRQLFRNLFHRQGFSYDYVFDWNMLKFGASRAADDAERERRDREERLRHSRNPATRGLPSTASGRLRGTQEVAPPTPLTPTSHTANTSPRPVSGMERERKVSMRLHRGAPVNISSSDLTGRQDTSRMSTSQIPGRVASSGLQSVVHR

[3] = target: Serine/threonine-protein kinase Chk2 (Homo sapiens) (UniProt O96017); assay: Selectivity interaction (KinomeScan (DiscoverX)) EUB0000655a CHEK2; details: at 10 µM
Sequence of Serine/threonine-protein kinase Chk2 (Homo sapiens) (O96017 whole entry): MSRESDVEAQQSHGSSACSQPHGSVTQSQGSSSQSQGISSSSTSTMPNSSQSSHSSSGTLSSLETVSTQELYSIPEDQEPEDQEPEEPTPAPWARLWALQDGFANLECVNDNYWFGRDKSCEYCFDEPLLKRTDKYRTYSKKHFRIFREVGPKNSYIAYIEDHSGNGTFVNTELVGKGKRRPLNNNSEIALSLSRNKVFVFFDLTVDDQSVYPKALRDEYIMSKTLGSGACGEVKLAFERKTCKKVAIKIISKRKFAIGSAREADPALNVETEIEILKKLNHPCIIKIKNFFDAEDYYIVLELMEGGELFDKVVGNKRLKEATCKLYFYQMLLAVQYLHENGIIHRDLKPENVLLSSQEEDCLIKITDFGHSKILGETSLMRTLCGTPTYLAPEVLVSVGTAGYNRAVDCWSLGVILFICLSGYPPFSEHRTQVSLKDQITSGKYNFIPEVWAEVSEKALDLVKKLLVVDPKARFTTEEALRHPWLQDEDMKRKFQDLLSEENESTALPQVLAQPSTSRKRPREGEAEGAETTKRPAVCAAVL

[4] = target: Myosin light chain kinase, smooth muscle (Homo sapiens, UniProt Q15746); assay: Selectivity interaction (KinomeScan (DiscoverX)) EUB0001619a MYLK; details: at 1 µM
Sequence of Myosin light chain kinase, smooth muscle (Q15746 whole entry): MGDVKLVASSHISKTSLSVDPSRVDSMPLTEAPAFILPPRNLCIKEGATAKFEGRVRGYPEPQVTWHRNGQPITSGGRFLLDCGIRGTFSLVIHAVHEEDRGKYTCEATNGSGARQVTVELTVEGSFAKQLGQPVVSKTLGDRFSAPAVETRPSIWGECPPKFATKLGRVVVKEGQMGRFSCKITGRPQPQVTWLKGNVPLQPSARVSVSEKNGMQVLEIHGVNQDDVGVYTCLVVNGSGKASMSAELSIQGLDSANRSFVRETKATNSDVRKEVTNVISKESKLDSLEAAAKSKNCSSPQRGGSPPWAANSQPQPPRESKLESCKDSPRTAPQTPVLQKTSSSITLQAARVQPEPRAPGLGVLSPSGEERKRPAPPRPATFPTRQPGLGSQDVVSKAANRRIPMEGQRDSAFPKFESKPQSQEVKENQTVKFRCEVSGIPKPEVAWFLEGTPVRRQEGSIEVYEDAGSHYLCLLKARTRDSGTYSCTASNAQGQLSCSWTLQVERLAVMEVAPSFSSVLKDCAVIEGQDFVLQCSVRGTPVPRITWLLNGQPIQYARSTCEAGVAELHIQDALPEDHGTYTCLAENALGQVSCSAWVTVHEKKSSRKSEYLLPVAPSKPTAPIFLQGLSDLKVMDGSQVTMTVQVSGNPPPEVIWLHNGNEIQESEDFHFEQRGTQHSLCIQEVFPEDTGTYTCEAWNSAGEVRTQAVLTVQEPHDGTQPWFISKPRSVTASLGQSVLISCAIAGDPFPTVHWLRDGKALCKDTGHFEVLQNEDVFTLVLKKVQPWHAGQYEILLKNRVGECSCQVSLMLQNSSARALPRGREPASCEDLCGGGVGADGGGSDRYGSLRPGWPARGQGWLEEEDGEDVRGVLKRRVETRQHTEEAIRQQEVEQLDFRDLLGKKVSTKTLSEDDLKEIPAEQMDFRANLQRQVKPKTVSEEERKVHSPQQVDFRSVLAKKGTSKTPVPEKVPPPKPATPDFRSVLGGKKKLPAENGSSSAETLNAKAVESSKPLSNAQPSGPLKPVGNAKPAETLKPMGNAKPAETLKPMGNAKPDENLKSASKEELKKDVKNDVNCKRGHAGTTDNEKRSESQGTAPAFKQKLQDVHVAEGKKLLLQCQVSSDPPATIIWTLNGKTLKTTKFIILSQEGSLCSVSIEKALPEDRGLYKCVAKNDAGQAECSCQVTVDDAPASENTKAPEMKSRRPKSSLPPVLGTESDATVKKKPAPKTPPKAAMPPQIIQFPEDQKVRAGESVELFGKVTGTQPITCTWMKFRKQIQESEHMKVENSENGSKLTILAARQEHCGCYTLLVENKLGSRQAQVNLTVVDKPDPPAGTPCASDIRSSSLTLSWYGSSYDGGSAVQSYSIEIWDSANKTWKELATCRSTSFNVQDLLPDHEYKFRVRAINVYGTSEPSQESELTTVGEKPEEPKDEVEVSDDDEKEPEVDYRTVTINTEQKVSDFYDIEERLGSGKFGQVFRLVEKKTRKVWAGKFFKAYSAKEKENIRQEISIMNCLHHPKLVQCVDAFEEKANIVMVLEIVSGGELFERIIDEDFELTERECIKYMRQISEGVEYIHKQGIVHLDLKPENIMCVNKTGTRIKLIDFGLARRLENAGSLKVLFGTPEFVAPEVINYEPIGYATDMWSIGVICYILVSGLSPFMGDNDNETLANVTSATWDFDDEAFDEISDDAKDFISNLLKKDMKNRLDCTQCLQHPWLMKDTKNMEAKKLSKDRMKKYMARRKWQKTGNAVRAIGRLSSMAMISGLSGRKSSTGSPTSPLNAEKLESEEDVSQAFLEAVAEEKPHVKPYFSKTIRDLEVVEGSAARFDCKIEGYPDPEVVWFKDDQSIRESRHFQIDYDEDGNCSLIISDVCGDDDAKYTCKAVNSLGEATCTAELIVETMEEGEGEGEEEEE

[5] = target: Protein kinase C beta type (Homo sapiens, UniProt P05771); assay: Selectivity interaction (Upstate Kinase Profiler service (Millipore)) EUB0000056c PRKCB; details: at 1 µM
[6] = target: T2, Phosphorylase b kinase gamma catalytic chain, liver/testis isoform (Homo sapiens) (UniProt P15735); details: at 10 µM
T2 sequence (whole entry): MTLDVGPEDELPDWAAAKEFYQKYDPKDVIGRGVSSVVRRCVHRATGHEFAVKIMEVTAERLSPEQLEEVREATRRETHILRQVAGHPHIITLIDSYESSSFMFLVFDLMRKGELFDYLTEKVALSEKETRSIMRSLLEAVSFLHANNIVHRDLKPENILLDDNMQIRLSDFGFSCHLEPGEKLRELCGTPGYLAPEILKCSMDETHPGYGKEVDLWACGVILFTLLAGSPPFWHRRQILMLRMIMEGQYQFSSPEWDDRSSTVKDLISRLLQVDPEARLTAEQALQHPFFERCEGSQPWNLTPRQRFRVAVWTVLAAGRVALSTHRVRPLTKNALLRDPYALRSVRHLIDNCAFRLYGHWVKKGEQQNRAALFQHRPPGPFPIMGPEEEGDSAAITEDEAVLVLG

[7] = target: T3, Ephrin type-B receptor 3 (Homo sapiens) (UniProt P54753); assay: Selectivity interaction (ActivX KiNativ screen (kinase selectivity in THP-1 cell lysates)) EUB0000639a EPHB3; format: subcellular; details: lysate
T3 sequence (whole entry): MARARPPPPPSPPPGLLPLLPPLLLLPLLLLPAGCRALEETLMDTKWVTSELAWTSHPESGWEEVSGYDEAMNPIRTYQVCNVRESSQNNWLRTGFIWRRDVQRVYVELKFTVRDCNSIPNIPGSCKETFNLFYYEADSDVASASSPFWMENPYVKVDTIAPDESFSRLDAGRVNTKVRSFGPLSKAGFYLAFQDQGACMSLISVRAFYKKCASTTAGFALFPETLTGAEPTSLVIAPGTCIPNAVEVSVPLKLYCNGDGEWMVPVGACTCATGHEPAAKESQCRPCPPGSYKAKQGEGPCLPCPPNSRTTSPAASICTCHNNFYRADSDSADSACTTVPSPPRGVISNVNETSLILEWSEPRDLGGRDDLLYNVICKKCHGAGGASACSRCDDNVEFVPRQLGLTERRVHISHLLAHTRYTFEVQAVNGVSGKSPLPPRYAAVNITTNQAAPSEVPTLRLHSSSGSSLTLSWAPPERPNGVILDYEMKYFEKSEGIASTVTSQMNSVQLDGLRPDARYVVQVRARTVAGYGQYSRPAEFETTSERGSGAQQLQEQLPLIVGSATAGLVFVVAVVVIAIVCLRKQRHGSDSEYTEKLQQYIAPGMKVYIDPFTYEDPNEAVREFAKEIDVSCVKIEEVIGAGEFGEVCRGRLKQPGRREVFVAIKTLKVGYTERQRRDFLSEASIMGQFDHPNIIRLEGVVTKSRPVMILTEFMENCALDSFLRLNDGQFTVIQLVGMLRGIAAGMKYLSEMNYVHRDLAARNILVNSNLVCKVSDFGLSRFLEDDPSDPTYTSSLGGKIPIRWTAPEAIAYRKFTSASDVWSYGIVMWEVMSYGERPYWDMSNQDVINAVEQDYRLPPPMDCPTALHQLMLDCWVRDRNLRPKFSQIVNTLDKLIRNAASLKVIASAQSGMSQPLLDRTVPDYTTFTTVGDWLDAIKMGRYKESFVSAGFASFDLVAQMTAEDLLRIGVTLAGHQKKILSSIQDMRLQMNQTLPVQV

[8] = target: TRAF2 and NCK-interacting protein kinase (Homo sapiens) (UniProt Q9UKE5); assay: Selectivity interaction (ActivX KiNativ screen (kinase selectivity in THP-1 cell lysates)) EUB0000639a TNIK; format: subcellular; details: lysate
Sequence of TRAF2 and NCK-interacting protein kinase (Homo sapiens) (Q9UKE5 whole entry, looked up): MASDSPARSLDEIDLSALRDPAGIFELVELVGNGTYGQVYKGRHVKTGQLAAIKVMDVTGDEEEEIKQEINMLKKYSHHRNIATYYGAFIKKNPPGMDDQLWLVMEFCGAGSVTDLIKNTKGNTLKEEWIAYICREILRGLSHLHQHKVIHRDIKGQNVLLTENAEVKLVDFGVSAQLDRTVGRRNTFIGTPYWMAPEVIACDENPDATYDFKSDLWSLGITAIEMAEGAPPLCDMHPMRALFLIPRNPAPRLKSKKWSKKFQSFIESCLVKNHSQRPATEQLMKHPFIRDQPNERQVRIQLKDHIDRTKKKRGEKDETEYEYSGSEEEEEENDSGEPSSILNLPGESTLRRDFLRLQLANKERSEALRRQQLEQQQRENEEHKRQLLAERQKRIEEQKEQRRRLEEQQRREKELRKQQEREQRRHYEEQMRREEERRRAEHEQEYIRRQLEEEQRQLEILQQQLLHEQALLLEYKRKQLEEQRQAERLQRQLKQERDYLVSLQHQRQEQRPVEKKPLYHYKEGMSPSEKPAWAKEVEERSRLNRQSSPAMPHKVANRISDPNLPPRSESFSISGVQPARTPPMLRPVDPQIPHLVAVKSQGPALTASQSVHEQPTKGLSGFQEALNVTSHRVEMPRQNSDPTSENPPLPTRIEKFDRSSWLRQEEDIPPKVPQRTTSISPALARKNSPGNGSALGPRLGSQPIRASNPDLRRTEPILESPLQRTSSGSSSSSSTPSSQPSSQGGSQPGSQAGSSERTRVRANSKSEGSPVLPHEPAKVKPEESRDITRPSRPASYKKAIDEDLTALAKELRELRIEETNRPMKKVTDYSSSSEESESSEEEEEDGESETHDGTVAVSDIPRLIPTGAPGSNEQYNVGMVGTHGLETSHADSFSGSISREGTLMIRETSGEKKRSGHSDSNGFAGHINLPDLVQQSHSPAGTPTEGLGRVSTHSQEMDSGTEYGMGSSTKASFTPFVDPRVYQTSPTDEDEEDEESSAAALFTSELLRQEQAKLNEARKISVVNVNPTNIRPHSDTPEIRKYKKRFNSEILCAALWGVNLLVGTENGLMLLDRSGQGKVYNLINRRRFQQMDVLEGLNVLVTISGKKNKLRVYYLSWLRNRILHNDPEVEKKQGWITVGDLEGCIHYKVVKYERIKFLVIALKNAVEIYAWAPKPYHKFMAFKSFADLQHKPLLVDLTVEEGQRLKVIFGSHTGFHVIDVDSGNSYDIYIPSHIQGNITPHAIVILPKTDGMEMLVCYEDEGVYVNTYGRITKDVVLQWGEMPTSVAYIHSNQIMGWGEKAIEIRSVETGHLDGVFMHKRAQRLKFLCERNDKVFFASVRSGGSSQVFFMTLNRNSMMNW

[9] = target: Ribosomal protein S6 kinase alpha-3 (Homo sapiens, UniProt P51812); assay: Selectivity interaction (ActivX KiNativ screen (kinase selectivity in THP-1 cell lysates)) EUB0000639a RPS6KA3; format: subcellular; details: lysate, at 0.01 µM
[10] = target: Bromodomain-containing protein 8 (Homo sapiens) (UniProt Q9H0E9); assay: Selectivity interaction (Bromodomain panel (DSF asssay)) EUB0000270b BRD8
OATP1B1 (SLCO1B1) = OATP1B1 (SLCO1B1) (Homo sapiens, UniProt Q9Y6L6); assay: Selectivity interaction (Panel of kinases, GPCRs, ion channels and transporters (enzymatic assay)) EUB0000266bCl SLCO1B1; details: not told
Sequence of OATP1B1 (SLCO1B1) (Q9Y6L6 whole entry): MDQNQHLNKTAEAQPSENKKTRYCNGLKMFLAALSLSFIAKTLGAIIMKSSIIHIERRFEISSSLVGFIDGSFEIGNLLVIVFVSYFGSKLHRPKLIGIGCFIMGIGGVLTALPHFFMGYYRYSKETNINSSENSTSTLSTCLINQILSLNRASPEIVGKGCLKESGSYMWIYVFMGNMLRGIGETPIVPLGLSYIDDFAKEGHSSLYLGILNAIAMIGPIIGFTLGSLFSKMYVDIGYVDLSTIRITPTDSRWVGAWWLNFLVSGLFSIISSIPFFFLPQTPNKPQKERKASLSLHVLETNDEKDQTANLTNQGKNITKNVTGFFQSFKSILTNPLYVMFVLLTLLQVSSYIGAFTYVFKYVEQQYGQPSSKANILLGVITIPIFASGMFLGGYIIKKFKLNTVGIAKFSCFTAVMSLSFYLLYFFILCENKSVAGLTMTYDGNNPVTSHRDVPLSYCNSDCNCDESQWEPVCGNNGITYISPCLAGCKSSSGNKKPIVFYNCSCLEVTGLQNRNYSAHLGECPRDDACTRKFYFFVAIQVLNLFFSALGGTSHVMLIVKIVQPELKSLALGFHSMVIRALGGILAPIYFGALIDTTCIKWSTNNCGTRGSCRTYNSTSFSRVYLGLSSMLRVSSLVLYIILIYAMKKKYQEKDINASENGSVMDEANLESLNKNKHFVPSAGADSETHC

[11] = target: Atypical kinase COQ8A, mitochondrial (Homo sapiens, UniProt Q8NI60); assay: Selectivity interaction (KinomeScan (DiscoverX)) EUB0000092b ADCK3; details: at 10 µM
Ephrin type-A receptor 4 = Ephrin type-A receptor 4 (Homo sapiens, UniProt P54764); assay: Selectivity interaction (Kinase panel (Z-LYTE Assay)) EUB0001632a EPHA4; details: at 10 µM

Compound: CN(C)C/C=C/C(=O)Nc1ccc(C(=O)N2CCCC(Nc3ncc(Cl)c(-c4c[nH]c5ccccc45)n3)C2)cc1 (stereo unspecified)
% of control [1]: 97%

dTM [2]: -0.9 K
Compound: CN(C(=O)c1cnn2cccnc12)c1cc2c(cc1N1CCOCC1)C(=O)N(C[C@@H](F)C(C)(C)O)C2

Compound: CN(C)CCOc1ccc(-c2nc(-c3ccncc3)c(-c3ccc4c(c3)CC/C4=N\O)[nH]2)cc1
% of control [3]: 100%

Compound: N#Cc1cccc(-c2c[nH]c3ncnc(N4CCOCC4)c23)c1
% of control [4]: 93%

% of inhibition [5]: 13%
Compound: Cc1ccc(-c2ccc3c(ccc4sc5c(c43)NC[C@@H](C)NC5=O)n2)cn1

Compound: Cc1cc([C@@H](C)Nc2ccccc2C(=O)O)c2nc(N3CCOCC3)cc(=O)n2c1 [AZD-6482]
% of control [6]: 100%

% of inhibition ([7]; at 0.01 µM): -3.9% | % of inhibition ([7]; at 0.04 µM): -40.1% | % of inhibition ([7]; at 0.2 µM): -48.3% | % of inhibition ([7]; at 1 µM): -34.8% | % of inhibition ([7]; at 5 µM): -22.6% | % of inhibition ([8]; at 0.01 µM): -2.8% | % of inhibition ([8]; at 0.04 µM): -2.7% | % of inhibition ([8]; at 0.2 µM): -20.6% | % of inhibition ([8]; at 1 µM): -28.3% | % of inhibition ([8]; at 5 µM): 16.1% | % of inhibition [9]: 17.5%
Compound: CC[C@@H]1[C@H](F)C(=O)N[C@@H]1COc1nccc2cc(C(N)=O)c(OC)cc12 [ZIMLOVISERTIB]

dTM [10]: -1.17 K
Compound: Cc1cc(CN)cc(C)c1-c1ncn(C)c1-c1cncn1C

XC50 (OATP1B1 (SLCO1B1)): > 50.1 µM
Compound: CCn1c(-c2nc3cc(C(=O)N4CCCC(N)C4)ccc3n2C)cc2ccccc21 (stereo unspecified)

Compound: CCC(=O)N1CCN(c2ccc(-n3c(=O)ccc4cnc5ccc(-c6cnc7ccccc7c6)cc5c43)cc2C(F)(F)F)CC1
% of control [11]: 17%

% of control (Ephrin type-A receptor 4): -5.33%
Compound: Cn1cc(-n2cnc3c(NCc4nc5cc(Cl)c(Cl)cc5[nH]4)nc(N4CCOCC4)nc32)cn1
